Laboratory results from PubChem BioAssay (NCI).
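Where inhibition never reached the appropriate level, the endpoint shown equals the highest concentration tested. Otherwise, values were interpolated linearly from a five-concentration, 48-hour dose response in 96-well plates. TGI: total growth inhibition.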

How the values were obtained:
Assay in all cases: NCI-60 cell line screen, 48 h
U251 CNS = test system: U251 CNS
HCC-2998 colon = test system: HCC-2998 colon
COLO 205 colon = test system: COLO 205 colon
SNB-19 CNS = test system: SNB-19 CNS
A549 NSCLC = test system: A549 NSCLC
SK-MEL-28 melanoma = test system: SK-MEL-28 melanoma
DLD-1 colon = test system: DLD-1 colon
SNB-78 CNS = test system: SNB-78 CNS
HL-60(TB) leukemia = test system: HL-60(TB) leukemia
UACC-257 melanoma = test system: UACC-257 melanoma
DMS 273 small cell lung = test system: DMS 273 small cell lung
SR leukemia = test system: SR leukemia
OVCAR-8 ovarian = test system: OVCAR-8 ovarian
HOP-18 NSCLC = test system: HOP-18 NSCLC
OVCAR-5 ovarian = test system: OVCAR-5 ovarian
MOLT-4 leukemia = test system: MOLT-4 leukemia
RXF 393 renal = test system: RXF 393 renal
HT29 colon = test system: HT29 colon
HOP-92 NSCLC = test system: HOP-92 NSCLC
MALME-3M melanoma = test system: MALME-3M melanoma
HOP-62 NSCLC = test system: HOP-62 NSCLC
UO-31 renal = test system: UO-31 renal
TK-10 renal = test system: TK-10 renal
SK-MEL-2 melanoma = test system: SK-MEL-2 melanoma
SF-539 CNS = test system: SF-539 CNS
NCI-H460 lung = test system: NCI-H460 lung
SNB-75 CNS = test system: SNB-75 CNS
NCI-H522 lung = test system: NCI-H522 lung
CAKI-1 renal = test system: CAKI-1 renal
A498 renal = test system: A498 renal
EKVX NSCLC = test system: EKVX NSCLC
SK-OV-3 ovarian = test system: SK-OV-3 ovarian
IGROV1 ovarian = test system: IGROV1 ovarian
RPMI-8226 leukemia = test system: RPMI-8226 leukemia
SN12C renal = test system: SN12C renal
SK-MEL-5 melanoma = test system: SK-MEL-5 melanoma
786-0 renal = test system: 786-0 renal
M14 melanoma = test system: M14 melanoma
OVCAR-4 ovarian = test system: OVCAR-4 ovarian
RXF-631 renal = test system: RXF-631 renal
LXFL 529 NSCLC = test system: LXFL 529 NSCLC
M19-MEL melanoma = test system: M19-MEL melanoma
NCI-H226 lung = test system: NCI-H226 lung
OVCAR-3 ovarian = test system: OVCAR-3 ovarian
HCT-116 colon = test system: HCT-116 colon
XF 498 CNS = test system: XF 498 CNS
SF-268 CNS = test system: SF-268 CNS
K-562 leukemia = test system: K-562 leukemia
KM20L2 colon = test system: KM20L2 colon
SW-620 colon = test system: SW-620 colon
CCRF-CEM leukemia = test system: CCRF-CEM leukemia
HCT-15 colon = test system: HCT-15 colon
KM12 colon = test system: KM12 colon
LOX IMVI melanoma = test system: LOX IMVI melanoma
SF-295 CNS = test system: SF-295 CNS
NCI-H23 lung = test system: NCI-H23 lung

## CS(=O)(=O)Sc1ccc(Cl)cc1
U251 CNS
  TGI: 11.5 µM
HCC-2998 colon
  TGI: 24 µM
COLO 205 colon
  TGI: 12.7 µM
SNB-19 CNS
  TGI: 25.1 µM
A549 NSCLC
  TGI: 17.5 µM
SK-MEL-28 melanoma
  TGI: 23.9 µM
DLD-1 colon
  TGI: 27.2 µM
SNB-78 CNS
  TGI: 15.6 µM
HL-60(TB) leukemia
  TGI: 17.5 µM
UACC-257 melanoma
  TGI: 20.6 µM
DMS 273 small cell lung
  TGI: 17.4 µM
SR leukemia
  TGI: 15.7 µM
OVCAR-8 ovarian
  TGI: 21.8 µM
HOP-18 NSCLC
  TGI: 55.4 µM
OVCAR-5 ovarian
  TGI: 31.5 µM
MOLT-4 leukemia
  TGI: 21.7 µM
RXF 393 renal
  TGI: 20.8 µM
HT29 colon
  TGI: 22.6 µM
HOP-92 NSCLC
  TGI: 20 µM
MALME-3M melanoma
  TGI: 26.6 µM
HOP-62 NSCLC
  TGI: 5.29 µM
UO-31 renal
  TGI: 13.3 µM
TK-10 renal
  TGI: 31.2 µM
SK-MEL-2 melanoma
  TGI: 25.6 µM
SF-539 CNS
  TGI: 10.9 µM
NCI-H460 lung
  TGI: 27.9 µM
SNB-75 CNS
  TGI: 12.6 µM
NCI-H522 lung
  TGI: 9.47 µM
CAKI-1 renal
  TGI: 24.4 µM
A498 renal
  TGI: 7.48 µM
EKVX NSCLC
  TGI: 18.3 µM
SK-OV-3 ovarian
  TGI: 43.9 µM
IGROV1 ovarian
  TGI: 8 µM
RPMI-8226 leukemia
  TGI: 41.9 µM
SN12C renal
  TGI: 16 µM
SK-MEL-5 melanoma
  TGI: 20.2 µM
786-0 renal
  TGI: 19.2 µM
M14 melanoma
  TGI: 25.8 µM
OVCAR-4 ovarian
  TGI: 29.7 µM
RXF-631 renal
  TGI: 20 µM
LXFL 529 NSCLC
  TGI: 23.3 µM
M19-MEL melanoma
  TGI: 21.2 µM
NCI-H226 lung
  TGI: 20.6 µM
OVCAR-3 ovarian
  TGI: 19.3 µM
HCT-116 colon
  TGI: 18.6 µM
XF 498 CNS
  TGI: 22.7 µM
SF-268 CNS
  TGI: 12.7 µM
K-562 leukemia
  TGI: 42.6 µM
KM20L2 colon
  TGI: 24.3 µM
SW-620 colon
  TGI: 25.3 µM
CCRF-CEM leukemia
  TGI: 8.89 µM
HCT-15 colon
  TGI: 22.2 µM
KM12 colon
  TGI: 19.7 µM
LOX IMVI melanoma
  TGI: 11.5 µM
SF-295 CNS
  TGI: 9.21 µM
NCI-H23 lung
  TGI: 27.7 µM
